Measurements reported in patent US10213415B2, “Compounds as opioid receptor modulators” (JANSSEN PHARMACEUTICA NV, priority 2004, dated 2019).
pKi: −log10 of the molar value.

Experiments:
delta opioid receptor = target: T1, delta opioid receptor (Rattus norvegicus, UniProt P33533); experiment: Rat Brain Delta Opioid Receptor Binding Assay ([3H]DPDPE); details: rat forebrain membranes, margin of error 10-20%, read-out: r Ki δ
T1 construct: from tissue; host or cells: forebrain of male Wistar rats
Protocol: (§1) Male, Wistar rats (150-250 g, VAF, Charles River, Kingston, N.Y.) are killed by cervical dislocation, and their brains removed and placed immediately in ice cold Tris HCl buffer (50 mM, pH 7.4). The forebrains are separated from the remainder of the brain by a coronal transection, beginning dorsally at the colliculi and passing ventrally through the midbrain-pontine junction. After dissection, the forebrains are homogenized in Tris buffer in a Teflon® glass homogenizer. The homogenate is diluted to a concentration of 1 g of forebrain tissue per 80 mL Tris and centrifuged at 39,000×g for 10 min. The pellet is resuspended in the same volume of Tris buffer containing 5 mM MgCl2 with several brief pulses from a Polytron homogenizer. This particulate preparation is used for the delta opioid binding assays. Following incubation with the delta selective peptide ligand ˜4 nM [^3H]DPDPE at 25° C. for 2.5 h in a 96-well plate with total volume of 1 mL, the plate contents are filtered through Wallac filtermat B sheets on a Tomtec 96-well harvester. The filters are rinsed three times with 2 mL of 10 mM HEPES (pH 7.4), and dried in a microwave oven 2 min twice. To each sample area 2×50 μL of Betaplate Scint scintillation fluid (LKB) is added and analyzed on a LKB (Wallac) 1205 BetaPlate liquid scintillation counter.
(§2) The data are used to calculate either the % inhibition compared to control binding (when only a single concentration of test compound is evaluated) or a Ki value (when a range of concentrations is tested). % inhibition is calculated as: [(total dpm−test compound dpm)/(total dpm−nonspecific dpm)]*100. Kd and Ki values were calculated using GraphPad PRISM data analysis program.

mu opioid receptor = target: T2, mu opioid receptor (Rattus norvegicus, UniProt P33535); experiment: Rat Brain Mu Opioid Receptor Binding Assay (and Version 2a, [3H]DAMGO); details: rat forebrain membranes, margin of error 10-20%, read-out: r Ki μ
T2 construct: from tissue; host or cells: forebrain of male Wistar rats
Protocol: as §1, with “mu-opioid” for “delta opioid”, “Following incubation with the delta selective peptide ligand ˜4 nM [^3H]DPDPE at 25° C. for 2.5 h in a 96-well plate with total volume of 1 mL, the plate contents are filtered through Wallac filtermat B sheets on a Tomtec 96-well harvester.” left out, “(pH7.4),” for “(pH 7.4),”
as §2, with “dpm-test” for “dpm−test”, “dpm-nonspecific” for “dpm−nonspecific”
Male, Wistar rats (150-250 g, VAF, Charles River, Kingston, N.Y.) were killed by cervical dislocation, and their brains removed and placed immediately in ice-cold Tris HCl buffer (50 mM, pH 7.4). The forebrains were separated from the remainder of the brain by a coronal transection, beginning dorsally at the colliculi and passing ventrally through the midbrain-pontine junction. After dissection, the forebrains were homogenized in Tris buffer in a Teflon®-glass homogenizer. The homogenate was diluted to a concentration of 1 g of forebrain tissue per 80 mL Tris and centrifuged at 39,000×g for 10 min. The pellet was resuspended in the same volume of Tris buffer containing 5 mM MgCl2 with several brief pulses from a Polytron homogenizer. This particulate preparation was used for the mu opioid binding assay. Following incubation with 0.8 nM of the mu selective ligand [^3H]DAMGO at 25° C. for 2.5 h in a 96-well plate with total 1 mL, the plate contents were filtered through Wallac filtermat B sheets on a Tomtec 96-well harvester. The filters were rinsed three times with 2 mL of 10 mM HEPES (pH 7.4), and dried in a microwave oven. To each sample area, Betaplate Scint scintillation fluid (LKB) was added and the resulting radioactivity quantified on a LKB (Wallac) 1205 BetaPlate liquid scintillation counter. Kd and Ki values were calculated using the GraphPad PRISM data analysis program.

human mu opioid receptor = target: T3, human mu opioid receptor (Homo sapiens, UniProt P35372); experiment: Human Mu Opioid Receptor Binding Assay (CHO membranes, 3H-Damgo); details: read-out: hKi μ
T3 construct: purchased Perkin Elmer RBHOMM400UA; host or cells: Chinese Hamster Ovary cells (recombinant expression)
Summary of the method: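 Radioligand displacement of ³H-Damgo (diluted to 3.6 nM pre-mix) from recombinant human mu receptor in CHO membranes, 2 h, room temperature, 50 mM Tris pH 7.5 with 5 mM MgCl2. Bound label read by filtration and scintillation counting; 1 μM unlabelled Damgo defines nonspecific binding.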

[1] = target: T4, mu opioid receptor (CHO-hMOR cell membranes) (Homo sapiens, UniProt P35372); experiment: Mu Opioid Receptor Functional Assay: [35S]GTPγS Binding in CHO-hMOR Cell Membranes, Versions 1 and 2; assay type: biochemical; details: for MOR GTP binding assay_v1 (% I): version 1, % inhibition of agonist-stimulated GTPγS binding; for MOR GTP assay_v1 % of Basal: version 1, basal binding = 100%
T4 construct: purchased Receptor Biology, Inc. (Baltimore, Md.); host or cells: CHO cells (recombinant expression)
Protocol: CHO-hMOR cell membranes were purchased from Receptor Biology, Inc. (Baltimore, Md.). About 10 mg/ml of membrane protein was suspended in 10 mM TRIS-HCl pH 7.2, 2 mM EDTA, 10% sucrose, and the suspension kept on ice. One ml of membranes was added to 15 ml cold binding assay buffer containing 50 mM HEPES, pH 7.6, 5 mM MgCl2, 100 mM NaCl, 1 mM DTT and 1 mM EDTA. The membrane suspension was homogenized with a Polytron and centrifuged at 3,000 rpm for 10 min. The supernatant was then centrifuged at 18,000 rpm for 20 min. The pellet was resuspended in 10 ml assay buffer with a Polytron.
The membranes were preincubated with wheat germ agglutinin coated SPA beads (Amersham) at 25° C. for 45 min in the assay buffer. The SPA bead (5 mg/ml) coupled membranes (10 μg/ml) were then incubated with 0.5 nM [^35S]GTPγS in the assay buffer. […] A range of concentrations of receptor agonists was used to stimulate [^35S]GTPγS binding. Both basal and non-specific binding was tested in the absence of agonist; non-specific binding determination included 10 μM unlabeled GTPγS.
Compounds were tested for function as antagonists by evaluating their potential to inhibit agonist-stimulated GTPγS binding. Radioactivity was quantified on a Packard TopCount. The following parameters were calculated:
[formula] % Inhibition=(% stimulation by 1 μM SNC80−% stimulation by 1 μM SNC80 in presence of test compound)×100/(% Stimulation by 1 μM SNC80−100)
EC50 values were calculated using GraphPad Prism.

[2] = target: T5, human delta subtype 2 opioid receptor (Homo sapiens, UniProt P41143); experiment: Human Delta Opioid Receptor Binding Assay (CHO membranes, 3H-Naltrindole); details: read-out: hKi δ
T5 construct: purchased Perkin Elmer RBHODM400UA; host or cells: Chinese Hamster Ovary cells (recombinant expression)
Summary of the method: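 Compound displacement of tritiated naltrindole (6 nM working dilution) measured by scintillation counting after GF/C filtration. Receptor source: recombinant CHO membranes; buffer 50 mM Tris, 5 mM MgCl2, pH 7.5; 30 min room-temperature incubation. 1 μM cold naltrindole sets nonspecific binding.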

T4 sequence (P35372 whole entry): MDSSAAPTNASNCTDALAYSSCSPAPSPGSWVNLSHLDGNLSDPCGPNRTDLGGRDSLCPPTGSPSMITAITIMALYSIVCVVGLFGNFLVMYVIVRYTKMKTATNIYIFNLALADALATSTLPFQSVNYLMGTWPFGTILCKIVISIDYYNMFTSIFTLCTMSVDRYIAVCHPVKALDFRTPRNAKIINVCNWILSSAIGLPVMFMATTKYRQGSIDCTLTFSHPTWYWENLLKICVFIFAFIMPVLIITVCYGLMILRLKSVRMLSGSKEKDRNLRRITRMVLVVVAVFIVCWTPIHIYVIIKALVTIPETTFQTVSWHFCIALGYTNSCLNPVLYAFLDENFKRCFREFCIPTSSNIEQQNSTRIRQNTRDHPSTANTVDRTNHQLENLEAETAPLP
T3 sequence (P35372 whole entry): as above
T2 sequence (P33535 whole entry): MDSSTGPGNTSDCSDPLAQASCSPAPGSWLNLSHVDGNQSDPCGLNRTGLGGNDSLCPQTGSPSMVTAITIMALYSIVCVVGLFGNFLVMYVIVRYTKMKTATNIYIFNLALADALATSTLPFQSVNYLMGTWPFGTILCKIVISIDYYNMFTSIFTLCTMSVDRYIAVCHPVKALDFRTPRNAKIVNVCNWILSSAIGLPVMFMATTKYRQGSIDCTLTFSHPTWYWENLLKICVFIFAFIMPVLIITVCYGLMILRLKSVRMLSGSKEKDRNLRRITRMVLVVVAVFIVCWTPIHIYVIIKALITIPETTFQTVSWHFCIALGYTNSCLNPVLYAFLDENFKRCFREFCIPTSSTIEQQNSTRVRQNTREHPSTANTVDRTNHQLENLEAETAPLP
T1 sequence (P33533 whole entry): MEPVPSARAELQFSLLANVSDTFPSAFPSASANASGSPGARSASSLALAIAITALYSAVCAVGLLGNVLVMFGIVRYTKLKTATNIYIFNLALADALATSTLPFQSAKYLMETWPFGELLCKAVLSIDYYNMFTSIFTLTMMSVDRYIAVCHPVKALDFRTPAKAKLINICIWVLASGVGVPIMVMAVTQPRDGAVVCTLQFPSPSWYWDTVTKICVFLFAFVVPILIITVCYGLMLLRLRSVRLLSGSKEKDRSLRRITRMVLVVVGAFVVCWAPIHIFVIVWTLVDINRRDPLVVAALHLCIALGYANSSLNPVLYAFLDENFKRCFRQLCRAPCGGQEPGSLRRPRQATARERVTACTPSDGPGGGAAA
T5 sequence (P41143 whole entry): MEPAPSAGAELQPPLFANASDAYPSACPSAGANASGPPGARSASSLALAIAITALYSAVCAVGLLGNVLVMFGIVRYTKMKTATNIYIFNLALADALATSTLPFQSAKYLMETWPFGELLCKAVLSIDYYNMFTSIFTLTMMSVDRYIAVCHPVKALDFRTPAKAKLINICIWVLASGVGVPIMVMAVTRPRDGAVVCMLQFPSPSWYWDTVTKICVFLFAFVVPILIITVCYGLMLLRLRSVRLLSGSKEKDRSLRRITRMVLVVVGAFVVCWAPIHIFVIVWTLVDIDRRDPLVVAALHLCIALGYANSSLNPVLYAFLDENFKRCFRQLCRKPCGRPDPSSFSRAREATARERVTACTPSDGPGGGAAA

| SMILES | pKi (delta opioid receptor) | pKi (mu opioid receptor) | also measured |
| --- | --- | --- | --- |
| CC(C)C[C@@H](c1nc(-c2ccccc2)c[nH]1)N(C)C(=O)[C@@H](N)Cc1cccc(C(N)=O)c1 [Cpd 168] | 5.05 | 5.27 |  |
| COc1ccc(CN(Cc2nc(-c3ccccc3)c[nH]2)C(=O)[C@@H](N)Cc2c(C)cc(C(N)=O)cc2C)cc1C(=O)O [Cpd 6] | 8.77 |  | pKi (human mu opioid receptor): 8.70 |
| CC(C)N(C(=O)[C@@H](N)Cc1ccc(O)cc1)[C@H](C)c1nc(-c2ccccc2)c[nH]1 [Cpd 222] | 6.40 | 7.04 | pKi (human mu opioid receptor): 6.73 |
| COC(=O)c1cc(CN(C(=O)[C@H](N)Cc2ccc(C(N)=O)cc2)[C@H](C)c2nc(-c3ccccc3)c[nH]2)ccc1OC [Cpd 284] | 5.82 | 5.99 |  |
| COC(=O)c1cc(CN(C(=O)[C@@H](N)Cc2ccc(O)cc2)[C@@H](C)c2nc(-c3ccccc3)c[nH]2)ccc1OC [Cpd 279] | 8.28 | 9.86 |  |
| Cc1cc(C(=O)N2CCOCC2)cc(C)c1C[C@H](N)C(=O)N(C)[C@H](C)c1nc(-c2ccccc2)c[nH]1 [Cpd 180] | 5.28 | 5.92 |  |
| COc1ccc(CN(C(=O)[C@@H](N)Cc2ccc(O)cc2)[C@@H](C)c2nc(-c3ccc(Cl)cc3)c(C)[nH]2)cc1C(=O)O [Cpd 293] | 5.50 | 6.19 |  |
| CNC(=O)c1cc(C)c(C[C@H](N)C(=O)N(C)[C@H](C)c2nc(-c3ccccc3)c[nH]2)c(C)c1 [Cpd 184] |  | 7.71 | MOR GTP binding assay_v1 (% I) [1]: 13.00%; MOR GTP assay_v1 % of Basal [1]: 862.00% |
| C[C@@H](c1nc(-c2ccccc2)c[nH]1)N(C)C(=O)[C@@H](N)Cc1ccc(S(N)(=O)=O)cc1 [Cpd 189] | 6.44 | 6.56 |  |
| COc1ccc(CN(C(=O)[C@@H](N)Cc2ccc(O)cc2)[C@@H](C)c2nc(-c3ccccc3)c[nH]2)cc1C(=O)N1CCOCC1 [Cpd 298] | 7.36 | 9.52 |  |
| Cc1cc(C(N)=O)cc(C)c1C[C@H](N)C(=O)N(Cc1cccc(C(=O)O)c1)[C@@H](C)c1nc(-c2ccc(Cl)cc2)c(C)[nH]1 [Cpd 12] | 10.10 |  | pKi (human mu opioid receptor): 8.39 |
| CC(C)[C@H](NC(=O)[C@@H](N)Cc1cccc(C(N)=O)c1)c1nc(-c2ccccc2)c[nH]1 [Cpd 185] | 6.74 | 5.17 |  |
| Cc1cc(O)cc(C)c1C[C@H](N)C(=O)N[C@H](c1nc(-c2ccccc2)c[nH]1)C(C)C [Cpd 187] | 5.28 | 6.92 |  |
| CN[C@@H](Cc1ccc(O)cc1)C(=O)N(Cc1ccc(OC)c(C(=O)O)c1)[C@@H](C)c1nc(-c2ccccc2)c[nH]1 [Cpd 262] | 7.76 | 8.96 | pKi (human mu opioid receptor): 8.49 |
| COc1ccc(CN(C(=O)[C@@H](N)Cc2ccc(O)cc2)[C@@H](C)c2nc(-c3ccccc3)c[nH]2)cc1C(N)=O [Cpd 297] | 7.36 | 9.96 |  |
| COC(=O)c1cc(CN(C(=O)[C@@H](N)Cc2c(C)cc(C(N)=O)cc2C)[C@H](C)c2nc(-c3ccccc3)c[nH]2)ccc1OC [Cpd 280] | 7.49 | 8.52 |  |
| CC(C)[C@@H](c1nc(-c2ccccc2)c[nH]1)N(C)C(=O)[C@@H](N)Cc1ccc(O)cc1 [Cpd 171] |  | 6.85 |  |
| Cc1cc(O)cc(C)c1C[C@H](N)C(=O)N[C@@H](CC(C)C)c1nc(-c2ccccc2)c[nH]1 [Cpd 176] |  | 6.81 |  |
| CC(C)[C@H](NC(=O)[C@@H](N)Cc1cccc(C#N)c1)c1nc(-c2ccccc2)c[nH]1 [Cpd 186] | 6.29 | 5.27 |  |
| CC(C)[C@H](NC(=O)[C@@H](N)Cc1ccc(O)cc1)c1nc(-c2ccccc2)c[nH]1 [Cpd 188] | 6.27 | 6.51 |  |
| Cc1cc(O)cc(C)c1C[C@H](N)C(=O)N(Cc1nc(-c2ccccc2)c[nH]1)C(C)CN(C)C (stereo partly shown) [Cpd 167] |  | 8.50 | pKi (human mu opioid receptor): 8.38; MOR GTP binding assay_v1 (% I) [1]: 17.00%; MOR GTP assay_v1 % of Basal [1]: 780.00% |
| Cc1cc(C(=O)N2CCOCC2)cc(C)c1C[C@H](N)C(=O)N(C)[C@@H](C)c1nc(-c2ccccc2)c[nH]1 [Cpd 179] |  | 5.15 |  |
| CC(C)C[C@@H](c1nc(-c2ccccc2)c[nH]1)N(C)C(=O)[C@@H](N)Cc1cccc(C#N)c1 [Cpd 169] |  | 6.07 |  |
| COc1ccc(CN(C(=O)[C@@H](N)Cc2c(C)cc(C(N)=O)cc2C)[C@H](C)c2nc(-c3ccc(Cl)cc3)c(C)[nH]2)cc1C(=O)O [Cpd 278] | 7.31 | 7.92 |  |
| COc1ccc(CN(C(=O)[C@@H](N)Cc2c(C)cccc2C)[C@@H](C)c2nc(-c3ccccc3)c[nH]2)cc1C(=O)O [Cpd 292] | 7.00 | 9.19 |  |
| COC(=O)c1cc(CN(C(=O)[C@@H](N)Cc2ccc(C(N)=O)cc2)[C@H](C)c2nc(-c3ccccc3)c[nH]2)ccc1OC [Cpd 281] | 6.14 | 6.40 |  |
| Cc1cc(O)cc(C)c1C[C@H](N)C(=O)N[C@@H](Cc1cccc(C(N)=O)c1)c1nc(-c2ccccc2)c[nH]1 [Cpd 172] |  | 6.82 |  |
| Cc1cc(O)cc(C)c1C[C@H](N)C(=O)N(C(C)C)[C@@H](Cc1cccc(C#N)c1)c1nc(-c2ccccc2)c[nH]1 [Cpd 122] |  |  | pKi (human mu opioid receptor): 7.89; pKi [2]: 6.97; MOR GTP binding assay_v1 (% I) [1]: 41.93%; MOR GTP assay_v1 % of Basal [1]: 278.08% |
